{"source": "patent US11453667B2", "about": "“Pyridone-pyrimidine derivative acting as KRASG12C mutein inhibitor” (MEDSHINE DISCOVERY INC., priority 2018, dated 2022)", "key": {"[1]": {"test_system": "NCI-H358 human non-small cell lung cancer cells with KRAS G12C mutation", "test": "Cell experiment: anti-proliferative activity, CellTiter-Glo, NCI-H358", "type": "cell-based", "settings": "Homo sapiens, NCI-H358, 120 h, 5 days culture", "protocol": "(§1) This experiment is intended to verify that the compounds of the present invention have an inhibitory effect on the proliferation of NCI-H358 human non-small cell lung cancer cells with KRAS G12C mutation, MIA PaCa2 human pancreatic cancer cells with KRAS G12C mutation and wild-type A375 human malignant melanoma cells.\n(§2) 40 μl of phosphate buffer was added to the peripheral wells of three 384-well microplates respectively, and 40 μl of cell suspension to be tested was added to the other wells of each plate respectively (plate 1: NCI-H358 cell suspension containing 500 NCI-H358 cells; plate 2: MIAPaCa2 cell suspension containing 300 MIAPaCa2 cells; plate 3: A375 cell suspension containing 300 A375 cells). The three cell plates were then placed in a carbon dioxide incubator and incubated overnight. Echo was used to perform a 3-fold gradient dilution of the compounds to be tested, and each compound was diluted with 10 concentration gradients (diluted from 50 μM to 0.003 μM), 100 nl of which was respectively added to the corresponding wells of the cell plates; after dosing, 40 μL of phosphate buffer was added to each well of rows A and P and columns 1 and 24, and then the cell plates were put back to the carbon dioxide incubator for culturing for 5 days. 20 μl of Promega CellTiter-Glo reagent per well was added to the cell plates, which was shaken at room temperature for 10 minutes in the dark to stabilize the luminescence signal. A PerkinElmer Envision multi-label analyzer was used for reading.\n(§3) Data analysis: IC50 results were analyzed by GraphPad Prism 5.0 software […]."}, "[2]": {"test_system": "human non-small cell lung cancer NCI-H358", "test": "In vivo drug efficacy test (2): subcutaneous xenograft tumor model", "design": "species or system BALB/c nude mice", "settings": "100 mg/kg (0-6 days) + 50 mg/kg (7-20 days)", "protocol": "(§4) To evaluate the in vivo efficacy of the test compounds in a subcutaneous xenograft tumor model of human non-small cell lung cancer NCI-H358.\nBALB/c nude mice, female, 6-8 weeks old, weighing 18-21 grams. A total of 100 were required. They were provided by Shanghai Lingchang Experimental Animal Co., Ltd ( ? ? ). NCI-H358 tumor cells were resuspended in PBS to prepare 0.1 mL (5×10^6) of cell suspension, which was inoculated subcutaneously on the right back of each mouse (5×10^6/mouse) to wait for tumor growth. When the average tumor volume reached about 150-200 mm^3, randomized grouping and administration were performed, and the administration dose was shown in Table 6. The diameter of the tumor was measured with vernier calipers twice a week. The formula for calculating the tumor volume is: V=0.5a×b^2, wherein a and b represent the long and short diameters of the tumor, respectively. The tumor suppressive effect of the compounds was evaluated by TGI (%). TGI (%) reflects the tumor growth inhibition rate. Calculation of TGI (%): TGI (%)=[(1−(average tumor volume at the end of administration in a treatment group−average tumor volume at the beginning of administration in the treatment group))/(average tumor volume at the end of treatment in the solvent control group−average tumor volume at the beginning of treatment in the solvent control group)]×100%."}, "[3]": {"test_system": "human non-small cell lung cancer NCI-H358", "test": "In vivo drug efficacy test (4): subcutaneous xenograft tumor model", "design": "species or system BALB/c nude mice", "settings": "for TGI: day 27", "protocol": "as §4\nBALB/c nude mice, female, 6-8 weeks old, weighing 18-20 grams. A total of 40 were required. They were provided by Shanghai Lingchang Experimental Animal Co., Ltd ( ? ? ). NCI-H358 tumor cells were resuspended in PBS to prepare a cell suspension with a density of 5×10^7/mL, which was inoculated subcutaneously on the right back of each mouse (0.1 mL, 5×10^6/mouse) to wait for tumor growth. When the average tumor volume reached about 166 mm^3, randomized grouping and administration were performed, and the administration dose was shown in Table 8. The diameter of the tumor was measured with vernier calipers twice a week.\nThe formula for calculating the tumor volume is: V=0.5a×b^2, wherein a and b represent the long and short diameters of the tumor, respectively. The tumor suppressive effect of the compounds was evaluated by TGI (%). TGI (%) reflects the tumor growth inhibition rate. Calculation of TGI (%): TGI (%)=[(1−(average tumor volume at the end of administration in a treatment group−average tumor volume at the beginning of administration in the treatment group))/(average tumor volume at the end of treatment in the solvent control group−average tumor volume at the beginning of treatment in the solvent control group)]×100%."}, "[4]": {"test_system": "human pancreatic cancer x-MIA-PaCa2 cell", "test": "In vivo drug efficacy test (3): subcutaneous xenograft tumor model", "design": "species or system NU/NU mice", "settings": "50 mg/kg", "protocol": "To evaluate the in vivo efficacy of the test compounds in a subcutaneous xenograft tumor model of human pancreatic cancer x-MIA-PaCa2 cell.\nNU/NU mice, female, 6-8 weeks old, weighing 17-20 grams. A total of 100 were required (additional 30% of animals were inoculated). They were provided by Beijing Vital River Science and Technology Co., Ltd. Each mouse was subcutaneously inoculated with 0.2 mL (10×10^6) of x-MIA-PaCa2 cells (plus matrigel, with the volume ratio being 1:1) on the right back. When the average tumor volume reached about 150 mm^3, grouping and administration were performed, and the administration dose was shown in Table 7. The diameter of the tumor was measured with vernier calipers twice a week. The formula for calculating the tumor volume is: V=0.5a×b^2, wherein a and b represent the long and short diameters of the tumor, respectively. The tumor suppressive effect of the compounds was evaluated by TGI (%). TGI (%) reflects the tumor growth inhibition rate. Calculation of TGI (%): TGI (%)=[(1−(average tumor volume at the end of administration in a treatment group−average tumor volume at the beginning of administration in the treatment group))/(average tumor volume at the end of treatment in the solvent control group−average tumor volume at the beginning of treatment in the solvent control group)]×100%."}, "[5]": {"test_system": "MIA PaCa2 human pancreatic cancer cells with KRAS G12C mutation", "test": "Cell experiment: anti-proliferative activity, CellTiter-Glo, MIA PaCa2", "type": "cell-based", "settings": "Homo sapiens, MIA PaCa-2, 120 h, 5 days culture", "protocol": "as §1, §2, §3"}, "[6]": {"settings": "50 mg/kg (0-2 days) + 1.5 mg/kg (3-27 days)"}}, "data": [{"smiles": "C=CC(=O)N1CCN(c2ncnc3c(=O)n(-c4c(N)c(Cl)cc(Cl)c4F)c(C(F)(F)F)cc23)CC1", "note": "[Example 49]", "values": [{"measurement": "IC50", "setting": "[1]", "result": 0.05, "unit": "µM"}, {"measurement": "Tumor volume (day 20)", "setting": "[2]", "result": 30, "unit": "mm^3"}, {"measurement": "TGI", "setting": "[2]; day 20", "result": 125.66, "unit": "%"}, {"measurement": "Tumor volume (day 27)", "setting": "[3]; 5 mg/kg", "result": 117, "unit": "mm^3"}, {"measurement": "TGI", "setting": "[3]; 5 mg/kg", "result": 107.25, "unit": "%"}, {"measurement": "Tumor volume (day 27)", "setting": "[3]; 15 mg/kg", "result": 56, "unit": "mm^3"}, {"measurement": "TGI", "setting": "[3]; 15 mg/kg", "result": 116.27, "unit": "%"}, {"measurement": "Tumor volume (day 27)", "setting": "[3]; [6]", "result": 295, "unit": "mm^3"}, {"measurement": "TGI", "setting": "[3]; [6]", "result": 80.92, "unit": "%"}, {"measurement": "Tumor volume (day 14)", "setting": "[4]", "result": 204, "unit": "mm^3"}, {"measurement": "TGI", "setting": "[4]; day 14", "result": 96.77, "unit": "%"}, {"measurement": "IC50", "setting": "[5]", "result": 0.07, "unit": "µM"}]}]}
